The subject of one experiment is NCI-H1975. In words: Antiproliferative activity against human NCI-H1975 cells assessed as reduction in cell viability incubated for 72 hrs by MTT assay. It counts as functional, cell-based. The following applies: NCI-H1975, 72 h.
The next experiment deals with A549. In words: cells. It counts as functional, cell-based. The following applies: Homo sapiens, A549, 72 h.
For another experiment, the system named is A-431. Description: cells. It counts as functional, cell-based. To be noted: Homo sapiens, A-431, 72 h.
The target of experiment [1] is Epidermal growth factor receptor (Homo sapiens, UniProt P00533).
Description: Inhibition of recombinant human N-terminal GST-tagged EGFR (669 to 1210 residues) expressed in baculovirus expression system using peptide as substrate incubated for 2 hrs followed by substrate addition and measured after 30 mins by TR-FRET assay
Experiment [2] concerns the target Epidermal growth factor receptor (Homo sapiens, UniProt P00533, T790M).

Molecules are shown by their SMILES.

Chain of Epidermal growth factor receptor (Homo sapiens, UniProt P00533) (P00533 whole entry): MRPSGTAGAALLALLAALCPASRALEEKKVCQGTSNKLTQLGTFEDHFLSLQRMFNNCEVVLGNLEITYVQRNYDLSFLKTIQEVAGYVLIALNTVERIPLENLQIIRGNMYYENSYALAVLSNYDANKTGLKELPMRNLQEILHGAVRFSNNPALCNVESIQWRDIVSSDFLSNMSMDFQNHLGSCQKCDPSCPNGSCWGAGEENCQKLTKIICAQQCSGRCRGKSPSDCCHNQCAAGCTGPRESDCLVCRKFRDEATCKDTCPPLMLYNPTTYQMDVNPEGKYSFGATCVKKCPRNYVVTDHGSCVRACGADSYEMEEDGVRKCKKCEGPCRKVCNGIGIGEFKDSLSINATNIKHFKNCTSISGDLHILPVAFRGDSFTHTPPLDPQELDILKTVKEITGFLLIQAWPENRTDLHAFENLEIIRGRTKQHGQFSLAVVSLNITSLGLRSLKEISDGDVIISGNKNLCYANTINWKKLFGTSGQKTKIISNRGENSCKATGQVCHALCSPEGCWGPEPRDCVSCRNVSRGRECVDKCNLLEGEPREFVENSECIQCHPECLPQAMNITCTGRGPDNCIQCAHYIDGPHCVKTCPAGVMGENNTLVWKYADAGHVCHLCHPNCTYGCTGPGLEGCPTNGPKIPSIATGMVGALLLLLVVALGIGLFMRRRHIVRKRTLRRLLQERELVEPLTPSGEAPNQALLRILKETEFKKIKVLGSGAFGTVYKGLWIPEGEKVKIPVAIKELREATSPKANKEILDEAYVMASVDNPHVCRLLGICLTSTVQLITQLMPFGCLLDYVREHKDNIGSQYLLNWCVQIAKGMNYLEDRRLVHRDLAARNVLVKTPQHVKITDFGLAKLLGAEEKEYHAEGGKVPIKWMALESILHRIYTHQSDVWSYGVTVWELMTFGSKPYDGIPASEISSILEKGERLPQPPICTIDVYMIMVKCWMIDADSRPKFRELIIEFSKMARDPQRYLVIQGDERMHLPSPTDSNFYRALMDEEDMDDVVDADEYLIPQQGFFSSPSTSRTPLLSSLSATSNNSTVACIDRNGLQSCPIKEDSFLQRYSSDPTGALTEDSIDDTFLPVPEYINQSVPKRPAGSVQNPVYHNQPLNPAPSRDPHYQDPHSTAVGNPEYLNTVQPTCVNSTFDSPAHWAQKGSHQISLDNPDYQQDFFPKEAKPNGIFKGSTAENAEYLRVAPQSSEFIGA
Chain of Epidermal growth factor receptor (Homo sapiens, UniProt P00533, T790M) (P00533 25-1210 T790M limits assumed): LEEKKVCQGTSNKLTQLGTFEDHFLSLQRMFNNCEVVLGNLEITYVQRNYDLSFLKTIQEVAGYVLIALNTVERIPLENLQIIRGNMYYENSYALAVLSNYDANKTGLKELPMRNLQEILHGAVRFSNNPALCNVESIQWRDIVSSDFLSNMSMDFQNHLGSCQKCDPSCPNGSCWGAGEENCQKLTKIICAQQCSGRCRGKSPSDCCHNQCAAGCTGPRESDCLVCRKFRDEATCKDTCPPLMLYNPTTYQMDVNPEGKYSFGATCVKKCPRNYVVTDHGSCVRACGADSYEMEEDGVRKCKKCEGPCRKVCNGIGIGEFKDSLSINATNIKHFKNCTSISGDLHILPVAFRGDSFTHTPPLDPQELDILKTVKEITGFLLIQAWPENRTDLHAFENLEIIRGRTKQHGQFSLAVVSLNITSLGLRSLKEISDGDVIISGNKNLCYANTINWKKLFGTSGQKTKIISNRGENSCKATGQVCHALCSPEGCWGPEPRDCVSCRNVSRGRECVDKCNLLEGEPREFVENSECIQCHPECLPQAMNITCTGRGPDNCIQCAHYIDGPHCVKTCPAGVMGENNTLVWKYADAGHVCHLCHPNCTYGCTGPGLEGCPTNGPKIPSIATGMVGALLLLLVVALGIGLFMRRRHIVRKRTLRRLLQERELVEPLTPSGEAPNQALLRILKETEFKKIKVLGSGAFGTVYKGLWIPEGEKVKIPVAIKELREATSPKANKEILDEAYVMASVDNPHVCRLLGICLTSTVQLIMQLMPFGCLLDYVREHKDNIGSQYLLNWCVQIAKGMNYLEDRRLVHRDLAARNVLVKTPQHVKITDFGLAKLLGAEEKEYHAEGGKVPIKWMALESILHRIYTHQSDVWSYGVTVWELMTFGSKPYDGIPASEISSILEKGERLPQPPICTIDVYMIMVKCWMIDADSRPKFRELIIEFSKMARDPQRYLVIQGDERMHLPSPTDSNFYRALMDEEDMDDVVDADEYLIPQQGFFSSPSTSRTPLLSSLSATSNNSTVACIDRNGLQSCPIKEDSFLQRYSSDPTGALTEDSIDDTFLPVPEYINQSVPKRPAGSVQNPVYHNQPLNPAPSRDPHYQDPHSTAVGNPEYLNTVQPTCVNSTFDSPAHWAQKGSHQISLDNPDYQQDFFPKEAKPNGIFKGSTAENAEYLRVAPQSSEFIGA
Description for A-431: Antiproliferative activity against human A-431 cells assessed as reduction in cell viability incubated for 72 hrs by MTT assay

Take `COc1cc2ncnc(Nc3ccc(OC(F)(F)F)cc3)c2cc1OCCCCC(=O)Nc1ccc(S(N)(=O)=O)cc1`: the IC50 with NCI-H1975 is 8.77 µM; in the experiment with A549 it was above 40 µM; in the experiment with A-431, 22.4 µM.
The like results for `Cc1cccc(Nc2ncnc3ccc(NC(=S)Nc4ccc(S(N)(=O)=O)cc4)cc23)c1` were, in that order, 35.4 µM, above 40 µM and 23.8 µM.
The like results for `Cc1ccc(Nc2ncnc3ccc(NC(=S)NCCc4ccc(S(N)(=O)=O)cc4)cc23)cc1` were, in that order, 10.2 µM, 14.7 µM and 13.1 µM.
The like results for `COc1ccc(Nc2ncnc3cc(OC)c(OCCCCC(=O)Nc4ccc(S(N)(=O)=O)cc4)cc23)cc1OC` were, in that order, 9.23 µM, above 40 µM and 35.4 µM.
Turning to `COc1cc2ncnc(Nc3ccc(Br)cc3)c2cc1OCCCCC(=O)Nc1ccc(S(N)(=O)=O)cc1`, the IC50 with NCI-H1975 is 23.3 µM; with A549, above 40 µM; with A-431 it was 6.57 µM.
As to `NS(=O)(=O)c1ccc(CCNC(=S)Nc2ccc3ncnc(Nc4ccc(OCc5cccc(F)c5)c(Cl)c4)c3c2)cc1`, the IC50 came out at 5.16 µM with NCI-H1975; 6.63 µM with A549; 28.4 nM in experiment [1]; 66.7 nM in experiment [2]; 5.77 µM in the experiment on A-431.
In the case of `C#Cc1cccc(Nc2ncnc3cc(OCCOC)c(OCCOC)cc23)c1` [ERLOTINIB], the IC50 was found to be 13.1 µM in the experiment with NCI-H1975, 16.4 µM in the experiment with A549 and 11.8 µM in the experiment with A-431.
As for `COc1cc2ncnc(Nc3cccc(Cl)c3F)c2cc1OCCCCC(=O)Nc1ccc(S(N)(=O)=O)cc1`, the IC50 in the experiment with NCI-H1975 was 6.93 µM; in the experiment with A549, 10.5 µM; in experiment [1] it was 34.8 nM; in experiment [2], 18 nM; in the experiment on A-431 it was 5.56 µM.
`CCc1ccc(Nc2ncnc3ccc(NC(=S)NCCc4ccc(S(N)(=O)=O)cc4)cc23)cc1`: the IC50 in the experiment with NCI-H1975 turned out to be 9.36 µM; in the experiment with A549, 16.6 µM; with A-431 it was 39.6 µM.
In the same order, the values of `COc1cc2ncnc(Nc3ccc(C(F)(F)F)cc3)c2cc1OCCCCC(=O)Nc1ccc(S(N)(=O)=O)cc1` are 12 µM, 14.8 µM and 16.9 µM.
In the same order, the values of `COc1cc2ncnc(Nc3ccc(C)cc3)c2cc1OCCCCC(=O)Nc1ccc(S(N)(=O)=O)cc1` are 19.2 µM, above 40 µM and 35.5 µM.
In the case of `COc1ccc(Nc2ncnc3cc(OC)c(OCCCCC(=O)Nc4ccc(S(N)(=O)=O)cc4)cc23)cc1`, the values for the IC50 in the experiment with NCI-H1975, with A549 and in the experiment on A-431 were 30.2 µM, above 40 µM and 14.7 µM, respectively.
In the case of `COc1cc2ncnc(Nc3ccc(OCc4cccc(F)c4)c(Cl)c3)c2cc1OCCCCC(=O)Nc1ccc(S(N)(=O)=O)cc1`, the IC50 came to 5.67 µM with NCI-H1975; 7.86 µM in the experiment with A549; 16.5 nM in experiment [1]; 22.8 nM in experiment [2]; 7.79 µM with A-431.
Take `NS(=O)(=O)c1ccc(CCNC(=S)Nc2ccc3ncnc(Nc4ccc(C(F)(F)F)cc4)c3c2)cc1`: the IC50 with NCI-H1975 was found to be 13 µM; in the experiment with A549, 32.4 µM; with A-431, 26.7 µM.
As for `NS(=O)(=O)c1ccc(CCNC(=S)Nc2ccc3ncnc(Nc4cccc(Br)c4)c3c2)cc1`, the IC50 in the experiment on NCI-H1975 worked out at 10.8 µM; in the experiment with A549, 9.36 µM; in the experiment on A-431 it was 17.3 µM.
In the same order, the values of `COc1cc2ncnc(Nc3cccc(Br)c3)c2cc1OCCCCC(=O)Nc1ccc(S(N)(=O)=O)cc1` are 11.4 µM, 14.9 µM and 9.75 µM.
The like results for `NS(=O)(=O)c1ccc(CCNC(=S)Nc2ccc3ncnc(Nc4ccc(F)c(Cl)c4)c3c2)cc1` were, in that order, 11.4 µM, 4.18 µM and 16.7 µM.
In the same order, the values of `NS(=O)(=O)c1ccc(CCNC(=S)Nc2ccc3ncnc(Nc4cccc(Cl)c4)c3c2)cc1` are 11 µM, 2.77 µM and 14.8 µM.
In the case of `Cc1cccc(Nc2ncnc3ccc(NC(=S)NCCc4ccc(S(N)(=O)=O)cc4)cc23)c1`, the IC50 turned out to be 20.8 µM in the experiment with NCI-H1975, 7.05 µM in the experiment with A549 and 16 µM in the experiment with A-431.
In the same order, the values of `COc1cc2ncnc(Nc3cccc(F)c3)c2cc1OCCCCC(=O)Nc1ccc(S(N)(=O)=O)cc1` are above 40 µM, above 40 µM and 29.9 µM.
The like results for `NS(=O)(=O)c1ccc(NC(=S)Nc2ccc3ncnc(Nc4ccc(Cl)c(C(F)(F)F)c4)c3c2)cc1` were, in that order, 11.8 µM, 4.5 µM and 18.2 µM.
In the same order, the values of `NS(=O)(=O)c1ccc(NC(=S)Nc2ccc3ncnc(Nc4ccc(F)c(Br)c4)c3c2)cc1` are 9.98 µM, above 40 µM and 18.2 µM.
Consider `NS(=O)(=O)c1ccc(NC(=S)Nc2ccc3ncnc(Nc4cccc(Cl)c4)c3c2)cc1`, for which the IC50 was 39.8 µM in the experiment on NCI-H1975, above 40 µM in the experiment on A549 and 15 µM with A-431.
The like results for `COc1cc2ncnc(Nc3cccc(C)c3)c2cc1OCCCCC(=O)Nc1ccc(S(N)(=O)=O)cc1` were, in that order, 32.1 µM, 16 µM and 7.46 µM.
As for `CCc1ccc(Nc2ncnc3ccc(NC(=S)Nc4ccc(S(N)(=O)=O)cc4)cc23)cc1`, the IC50 in the experiment on NCI-H1975 worked out at 38.7 µM; with A549, 24.6 µM; with A-431, 38.4 µM.
In the same order, the values of `COc1cc2ncnc(Nc3cccc(Cl)c3)c2cc1OCCCCC(=O)Nc1ccc(S(N)(=O)=O)cc1` are 33.2 µM, 11.2 µM and 30.4 µM.
In the same order, the values of `NS(=O)(=O)c1ccc(CCNC(=S)Nc2ccc3ncnc(Nc4cccc(F)c4)c3c2)cc1` are 35.7 µM, 5.51 µM and 9.94 µM.
On to `NS(=O)(=O)c1ccc(NC(=S)Nc2ccc3ncnc(Nc4cccc(F)c4)c3c2)cc1`, for which the IC50 worked out at 9.66 µM in the experiment on NCI-H1975, 25.9 µM in the experiment on A549 and 30.1 µM with A-431.
In the same order, the values of `NS(=O)(=O)c1ccc(NC(=S)Nc2ccc3ncnc(Nc4ccc(C(F)(F)F)cc4)c3c2)cc1` are 17.1 µM, above 40 µM and 18 µM.
The like results for `COc1cc2ncnc(Nc3ccc(F)cc3)c2cc1OCCCCC(=O)Nc1ccc(S(N)(=O)=O)cc1` were, in that order, above 40 µM, above 40 µM and 18.6 µM.
The like results for `COc1ccccc1Nc1ncnc2cc(OC)c(OCCCCC(=O)Nc3ccc(S(N)(=O)=O)cc3)cc12` were, in that order, 8.03 µM, 24.1 µM and 24.2 µM.
`NS(=O)(=O)c1ccc(CCNC(=S)Nc2ccc3ncnc(Nc4ccc(Cl)c(C(F)(F)F)c4)c3c2)cc1`: the IC50 with NCI-H1975 is 39.5 µM; in the experiment on A549, 30.4 µM; in the experiment with A-431, 21.2 µM.
As to `NS(=O)(=O)c1ccc(NC(=S)Nc2ccc3ncnc(Nc4cccc(Br)c4)c3c2)cc1`, the IC50 with NCI-H1975 stood at 11 µM; with A549 it was 25 µM; in the experiment on A-431 it was 20.7 µM.
In the same order, the values of `CCc1ccc(Nc2ncnc3cc(OC)c(OCCCCC(=O)Nc4ccc(S(N)(=O)=O)cc4)cc23)cc1` are 10.3 µM, 12.1 µM and 7.22 µM.
The like results for `NS(=O)(=O)c1ccc(NC(=S)Nc2ccc3ncnc(Nc4ccc(OCc5cccc(F)c5)c(Cl)c4)c3c2)cc1` were, in that order, 10.3 µM, above 40 µM and 29.5 µM.
In the same order, the values of `COc1cc2ncnc(Nc3ccc(F)c(Br)c3)c2cc1OCCCCC(=O)Nc1ccc(S(N)(=O)=O)cc1` are 31.6 µM, 16 µM and 8.02 µM.
Take `NS(=O)(=O)c1ccc(NC(=S)Nc2ccc3ncnc(Nc4cccc(Cl)c4F)c3c2)cc1`: the values for the IC50 in the experiment with NCI-H1975, in the experiment on A549 and with A-431 were 25.1 µM, above 40 µM and 13.1 µM, respectively.
The like results for `NS(=O)(=O)c1ccc(CCNC(=S)Nc2ccc3ncnc(Nc4cccc(Cl)c4F)c3c2)cc1` were, in that order, 13 µM, 4.53 µM and 4.21 µM.
In the same order, the values of `Cc1ccc(Nc2ncnc3ccc(NC(=S)Nc4ccc(S(N)(=O)=O)cc4)cc23)cc1` are 39.4 µM, 2.84 µM and 40 µM.
The like results for `C#Cc1cccc(Nc2ncnc3ccc(NC(=S)NCCc4ccc(S(N)(=O)=O)cc4)cc23)c1` were, in that order, 12.7 µM, 3.87 µM and 12.5 µM.
As to `COc1cc2ncnc(Nc3ccc(Cl)cc3)c2cc1OCCCCC(=O)Nc1ccc(S(N)(=O)=O)cc1`, the IC50 in the experiment with NCI-H1975 was 31.8 µM; with A549 it was above 40 µM; in the experiment on A-431, 7.12 µM.
The like results for `COc1cc2ncnc(Nc3cc(F)c(F)c(F)c3)c2cc1OCCCCC(=O)Nc1ccc(S(N)(=O)=O)cc1` were, in that order, 20 µM, above 40 µM and 23.4 µM.
In the case of `COc1cc2ncnc(Nc3ccccc3)c2cc1OCCCCC(=O)Nc1ccc(S(N)(=O)=O)cc1`, the IC50 in the experiment with NCI-H1975 is 14.1 µM; with A549, above 40 µM; in the experiment on A-431, 25.2 µM.
The like results for `C#Cc1cccc(Nc2ncnc3ccc(NC(=S)Nc4ccc(S(N)(=O)=O)cc4)cc23)c1` were, in that order, 13.4 µM, above 40 µM and 15.3 µM.
In the same order, the values of `NS(=O)(=O)c1ccc(CCNC(=S)Nc2ccc3ncnc(Nc4ccc(F)c(Br)c4)c3c2)cc1` are 9.43 µM, 5.4 µM and 21.1 µM.
Regarding `NS(=O)(=O)c1ccc(NC(=S)Nc2ccc3ncnc(Nc4ccc(F)c(Cl)c4)c3c2)cc1`, the IC50 is 15.8 µM in the experiment on NCI-H1975, above 40 µM in the experiment on A549 and 37.6 µM in the experiment with A-431.

For the origin of these results see ChEMBL document CHEMBL4813962, “Design, synthesis and biological evaluation of sulfamoylphenyl-quinazoline derivatives as potential EGFR/CAIX dual inhibitors” (Eur J Med Chem, 2021).
